According to patent US12428427B2, “Methods and compositions for targeting PD-L1” (Aligos Therapeutics, Inc., priority 2021, dated 2025):

Assays:
[1] = target: PDL1/PD1 (Homo sapiens, UniProt Q9NZQ7); experiment: PDL1/PD1 Binding Assay; details: PDL1-6×His 0.3 nM, PD1-Fc-Avi-Biotin 2.5 nM, Acceptor/Donor beads; read-out: PD-1/PD-L1 PPI IC50
Protocol: Compounds to be tested were serially diluted in DMSO, and further diluted in assay buffer (25 mM Hepes pH 7.4, 150 mM NaCl, 0.005% Tween 20, BSA 0.01%). Diluted compounds were added to the wells with final concentration of DMSO at 1%. PDL1-6×His protein was added to the wells, mixed well with compound. The plates were incubated for 30 min at room temperature. PD1-Fc-Avi-Biotin protein was added to the wells. Final concentration of PDL1 and PD1 protein is 0.3 nM and 2.5 nM, respectively. After a binding time of 30 min at room temperature, Anti-6×His Acceptor beads (final concentration 20 ug/ml) were added to the wells, and the incubation continued for 1 h. Streptavidin Donor beads (final concentration 20 ug/mL) were added at reduced light. The plates were sealed with foil and incubated in the dark for additional 1 h or overnight before reading on an Envision reader. The IC50 values were determined by fitting the curves using a four-parameter equation in Graphpad Prism 8.

[2] = target: T1, PD-1/PD-L1 interaction (Homo sapiens, UniProt Q9NZQ7); experiment: PD-1/PD-L1 NFAT Reporter Assay; format: cell-based; details: co-culture of PD-L1 expressing CHO cells and PD-1 overexpressing Jurkat cells, 6 hrs, NFAT luciferase
T1 construct: expressed in transfected cells; Jurkat cells (PD-1 plus NFAT-luciferase)
T1 sequence (Q9NZQ7 19-290): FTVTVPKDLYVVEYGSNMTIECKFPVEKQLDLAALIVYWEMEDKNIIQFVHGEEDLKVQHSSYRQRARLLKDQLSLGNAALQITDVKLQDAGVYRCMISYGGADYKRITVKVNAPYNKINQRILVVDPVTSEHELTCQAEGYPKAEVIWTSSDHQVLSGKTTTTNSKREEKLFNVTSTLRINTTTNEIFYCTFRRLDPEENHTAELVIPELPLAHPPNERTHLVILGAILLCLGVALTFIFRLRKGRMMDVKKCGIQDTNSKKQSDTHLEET
Protocol: Blocking the PD-1/PD-L1 interaction will release the inhibitory signal and results in TCR signaling and NFAT-mediated luciferase activity.
CHO cells expressing surface-bound anti-CD3 antibodies and PD-L1 were first seeded overnight and treated with the compounds. Jurkat cells overexpressing PD-1 and a luciferase construct under NFAT promoter were then immediately seeded on the monolayer of CHO cells. The co-culture was then incubated for 6 hrs at 37° C. Luciferase activity was assessed by adding the ONE-Glo reagent and measuring luminescence with a plate reader. EC50 values were determined from the fit of the dose-response curves.

Sequence of PDL1/PD1 (Q9NZQ7 19-238 limits assumed): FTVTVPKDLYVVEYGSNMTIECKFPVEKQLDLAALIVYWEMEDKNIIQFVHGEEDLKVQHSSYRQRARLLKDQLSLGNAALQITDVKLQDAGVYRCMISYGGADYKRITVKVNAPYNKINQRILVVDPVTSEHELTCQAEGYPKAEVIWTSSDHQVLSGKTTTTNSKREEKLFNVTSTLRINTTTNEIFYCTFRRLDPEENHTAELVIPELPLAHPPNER

SMILES | IC50 [1] [µM] | EC50 [2] [µM]
COc1nc(-c2cccc(-c3cccc(NC(=O)c4ccnn(C)c4=O)c3Cl)c2Cl)cc(C)c1CN1CC(C(=O)O)C1 [Compound C-88] | ≤ 0.01 | 0.01 to 0.1
CCOC(=O)C1CN(Cc2c(C)cc(-c3cccc(-c4cccc(NC(=O)c5ccnn(C)c5=O)c4Cl)c3Cl)nc2OC)C1 [Compound C-89] | ≤ 0.01 | 0.01 to 0.1
CCOC(=O)C1CN(Cc2c(C)cc(-c3cccc(-c4cccc(NC(=O)c5ccnn(C)c5=O)c4C)c3Cl)nc2OC)C1 [Compound C-90] | ≤ 0.01 | 0.01 to 0.1
COc1nc(-c2cccc(-c3cccc(NC(=O)c4ccnn(C)c4=O)c3C)c2Cl)cc(C)c1CN1CC(C(=O)O)C1 [Compound C-91] | ≤ 0.01 | 0.01 to 0.1
COc1cc(C(=O)Nc2cccc(-c3cccc(-c4ccc(CN[C@@H]5CCOC[C@@H]5O)c(OC)n4)c3Cl)c2Cl)c(=O)n(C)n1 [Compound C-92] | ≤ 0.01 | 0.01 to 0.1

Next, values leading:

IC50 [1] [µM] | EC50 [2] [µM] | SMILES
0.01 to 0.1 | > 5 | CCOC(=O)N(Cc1ncc(-c2cccc(-c3cccc(NC(=O)c4ccnn(C)c4=O)c3C)c2Cl)nc1OC)C[C@@H]1CCC(=O)N1 [Compound D-2]
≤ 0.01 | > 10 | COc1nc(-c2cccc(-c3cccc(NC(=O)c4ccnn(C)c4=O)c3Cl)c2Cl)ccc1CN1C(=O)O[C@H]2COCC[C@H]21 [Compound E-1]
